Like-named read-outs stand apart in the source and are kept apart here.
Columns and labels:
JAK3 = target: T1, JAK3 (Homo sapiens, UniProt P52333); assay: JAK3 inhibition assay (radiometric 33P filter assay); assay type: biochemical
T1 sequence (P52333 1-1124): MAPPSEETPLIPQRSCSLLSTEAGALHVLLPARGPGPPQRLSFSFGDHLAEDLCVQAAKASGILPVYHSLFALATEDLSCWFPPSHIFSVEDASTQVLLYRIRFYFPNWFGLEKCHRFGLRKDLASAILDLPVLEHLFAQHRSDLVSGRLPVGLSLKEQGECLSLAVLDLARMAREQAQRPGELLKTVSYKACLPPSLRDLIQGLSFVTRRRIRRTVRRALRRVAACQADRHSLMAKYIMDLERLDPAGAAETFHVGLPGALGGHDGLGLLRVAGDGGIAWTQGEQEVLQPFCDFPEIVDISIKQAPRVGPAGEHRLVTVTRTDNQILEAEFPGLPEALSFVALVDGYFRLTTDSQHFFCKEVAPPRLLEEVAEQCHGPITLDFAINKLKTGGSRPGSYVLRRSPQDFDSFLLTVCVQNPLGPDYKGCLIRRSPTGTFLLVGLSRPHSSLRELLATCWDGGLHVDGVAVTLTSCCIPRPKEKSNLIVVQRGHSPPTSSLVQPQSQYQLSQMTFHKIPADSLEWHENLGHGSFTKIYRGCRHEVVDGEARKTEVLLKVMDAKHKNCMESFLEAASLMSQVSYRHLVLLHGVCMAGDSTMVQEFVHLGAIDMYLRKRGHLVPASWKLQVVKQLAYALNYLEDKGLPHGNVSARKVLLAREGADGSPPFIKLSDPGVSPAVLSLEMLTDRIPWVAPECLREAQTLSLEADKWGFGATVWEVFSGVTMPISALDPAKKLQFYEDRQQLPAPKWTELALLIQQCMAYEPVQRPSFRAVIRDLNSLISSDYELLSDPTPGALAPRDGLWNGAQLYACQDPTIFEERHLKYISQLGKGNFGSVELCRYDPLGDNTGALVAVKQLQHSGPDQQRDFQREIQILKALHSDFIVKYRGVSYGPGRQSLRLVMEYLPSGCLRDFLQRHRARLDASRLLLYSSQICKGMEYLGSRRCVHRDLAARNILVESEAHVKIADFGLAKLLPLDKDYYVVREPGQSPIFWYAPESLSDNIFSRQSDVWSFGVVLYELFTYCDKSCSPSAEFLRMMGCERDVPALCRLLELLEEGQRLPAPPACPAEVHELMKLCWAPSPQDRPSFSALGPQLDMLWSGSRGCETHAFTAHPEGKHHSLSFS
Outline: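 Final conditions were 1 nM JAK3, 5 μM ATP (200 uCi/μmole) and 1 μM poly(Glu)4Tyr in 100 mM HEPES pH 7.4, 10 mM MgCl2, 25 mM NaCl, 1 mM DTT and 0.01% BSA. After 20 min at 25 °C the reaction was stopped with TCA. 33P incorporation was counted after glass-fibre filtration.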

JAK-2 enzyme = JAK-2 enzyme (Homo sapiens, UniProt O60674); assay: JAK2 inhibition assay (radiometric 33P filter assay); assay type: biochemical
Outline: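 JAK-2 enzyme in 100 mM HEPES pH 7.4, 1 mM DTT, 10 mM MgCl2, 25 mM NaCl, 0.01% BSA, with final 12 μM [33P]ATP and 15 μM poly(Glu)4Tyr. Reactions ran 20 min at 25 °C and were stopped with TCA. 33P incorporation was counted after glass-fibre filtration.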

[1] = 1 μM poly(Glu)4Tyr, 5 μM ATP, 1 nM JAK3, 25° C., read-out: JAK3 inhibition data (Ki)
[2] = 15 μM poly(Glu)4Tyr, 12 μM ATP, read-out: JAK2 inhibition data (Ki)

Sequence of JAK-2 enzyme (O60674 whole entry, species assumed): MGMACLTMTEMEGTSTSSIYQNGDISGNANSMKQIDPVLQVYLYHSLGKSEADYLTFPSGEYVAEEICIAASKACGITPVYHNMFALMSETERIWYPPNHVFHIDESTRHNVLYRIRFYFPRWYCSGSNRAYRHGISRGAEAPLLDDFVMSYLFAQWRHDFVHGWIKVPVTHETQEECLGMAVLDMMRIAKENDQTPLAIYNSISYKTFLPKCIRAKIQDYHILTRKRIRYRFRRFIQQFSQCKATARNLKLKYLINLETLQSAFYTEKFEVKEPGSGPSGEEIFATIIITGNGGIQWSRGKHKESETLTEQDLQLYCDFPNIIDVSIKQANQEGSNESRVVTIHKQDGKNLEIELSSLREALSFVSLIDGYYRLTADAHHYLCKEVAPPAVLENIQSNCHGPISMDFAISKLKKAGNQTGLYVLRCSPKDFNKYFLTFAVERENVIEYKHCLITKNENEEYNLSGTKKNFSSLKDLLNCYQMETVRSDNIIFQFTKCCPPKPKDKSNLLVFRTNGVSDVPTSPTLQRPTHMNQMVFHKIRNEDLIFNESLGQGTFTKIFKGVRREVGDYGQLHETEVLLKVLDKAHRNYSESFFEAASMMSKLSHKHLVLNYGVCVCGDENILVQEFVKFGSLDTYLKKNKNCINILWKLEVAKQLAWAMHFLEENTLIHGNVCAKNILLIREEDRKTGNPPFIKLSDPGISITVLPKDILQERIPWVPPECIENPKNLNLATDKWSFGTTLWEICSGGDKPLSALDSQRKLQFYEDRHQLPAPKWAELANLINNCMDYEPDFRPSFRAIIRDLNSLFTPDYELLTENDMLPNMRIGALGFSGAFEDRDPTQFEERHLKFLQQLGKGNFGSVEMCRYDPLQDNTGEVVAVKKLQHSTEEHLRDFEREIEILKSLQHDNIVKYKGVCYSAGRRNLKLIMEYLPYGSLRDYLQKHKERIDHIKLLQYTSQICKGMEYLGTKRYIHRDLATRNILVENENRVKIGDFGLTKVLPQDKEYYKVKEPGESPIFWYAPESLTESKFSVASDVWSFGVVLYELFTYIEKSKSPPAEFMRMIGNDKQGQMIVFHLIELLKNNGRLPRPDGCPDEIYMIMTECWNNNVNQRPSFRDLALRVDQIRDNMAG

| Ki (JAK3; [1]) [nM] | Ki (JAK-2 enzyme; [2]) [nM] | Compound | Ki (JAK3) [nM] | Ki (JAK-2 enzyme) [nM] |
| --- | --- | --- | --- | --- |
| < 50 | < 50 | CC(=O)N1[C@H](C)CN(c2cc(-n3nc(Nc4ccc(N5CCN(C(=O)OCC(C)C)CC5)cc4)nc3N)ccn2)C[C@@H]1C [Compound 128] |  |  |
| < 50 | < 50 | CCCOC(=O)N(C)c1ccc(Nc2nc(N)n(-c3cc(N4CCCN(C(C)=O)CC4)ncn3)n2)cc1 [Compound 129] |  |  |
| < 50 | < 50 | CC(=O)N1CCCN(c2cc(-n3nc(Nc4ccc(N(C)C(=O)OC(C)C)cc4)nc3N)ncn2)CC1 [Compound 130] |  |  |
| < 50 | < 50 | CC(=O)N1CCCN(c2cc(-n3nc(Nc4ccc(N(C)C(=O)OCC(C)C)cc4)nc3N)ncn2)CC1 [Compound 131] |  |  |
| < 50 | < 50 | CC(=O)N1CCCN(c2cc(-n3nc(Nc4ccc(N(C)C(=O)OCC(C)(C)C)cc4)nc3N)ncn2)CC1 [Compound 132] |  |  |
|  |  | CC(=O)N1CCCN(c2cc(-n3nc(Nc4ccc(N(C)C(=O)Oc5ccc(C)cc5)cc4)nc3N)ncn2)CC1 [Compound 133] | < 50 | < 50 |
|  |  | CC(=O)N1CCCN(c2cc(-n3nc(Nc4ccc(N(C)C(=O)Oc5ccccc5)cc4)nc3N)ncn2)CC1 [Compound 134] | < 50 | < 50 |
|  |  | COc1ccc(OC(=O)N(C)c2ccc(Nc3nc(N)n(-c4cc(N5CCCN(C(C)=O)CC5)ncn4)n3)cc2)cc1 [Compound 135] | < 50 | < 50 |
| < 50 | < 50 | CC(C)(C)OC(=O)Nc1ccc(Nc2nc(N)n(-c3cc(N4CCCN(C(=O)CC#N)CC4)ncn3)n2)cc1 [Compound 136] |  |  |
| < 50 | < 50 | CCOC(=O)Nc1ccc(Nc2nc(N)n(-c3cc(N4CCCN(C(=O)CC#N)CC4)ncn3)n2)cc1 [Compound 137] |  |  |
| < 50 | < 50 | CCCOC(=O)N1CCN(c2ccc(Nc3nc(N)n(-c4ccnc(N5C[C@@H](C)N(C(C)=O)[C@@H](C)C5)c4)n3)cc2)CC1 [Compound 139] |  |  |
| < 50 | < 50 | CCCOC(=O)N1CCN(c2ccc(Nc3nc(N)n(-c4ccnc(N5CCCN(C(=O)CC#N)CC5)c4)n3)cc2)CC1 [Compound 140] |  |  |
| < 50 | < 50 | CC(=O)N1[C@H](C)CN(c2cc(-n3nc(Nc4ccc(N5CCN(C(=O)OCC(C)(C)C)CC5)cc4)nc3N)ccn2)C[C@@H]1C [Compound 142] |  |  |
| < 50 | < 50 | CC(=O)N1[C@H](C)CN(c2cc(-n3nc(Nc4ccc(N5CCN(C(=O)OC(C)C)CC5)cc4)nc3N)ccn2)C[C@@H]1C [Compound 143] |  |  |
| 50 to 500 | 50 to 500 | CCOC(=O)N1CCN(c2ccc(Nc3nc(N)n(-c4cc(N5CCCN(S(C)(=O)=O)CC5)ncn4)n3)cc2)CC1 [Compound 144] |  |  |
| 50 to 500 | 50 to 500 | CCOC(=O)N1CCN(c2ccc(Nc3nc(N)n(-c4cc(N5CCCN(S(=O)(=O)CC)CC5)ncn4)n3)cc2)CC1 [Compound 145] |  |  |
| 50 to 500 | 50 to 500 | CCCS(=O)(=O)N1CCCN(c2cc(-n3nc(Nc4ccc(N5CCN(C(=O)OCC)CC5)cc4)nc3N)ncn2)CC1 [Compound 146] |  |  |
| 50 to 500 | 50 to 500 | CCCCS(=O)(=O)N1CCCN(c2cc(-n3nc(Nc4ccc(N5CCN(C(=O)OCC)CC5)cc4)nc3N)ccn2)CC1 [Compound 147] |  |  |
| 50 to 500 | 50 to 500 | CCOC(=O)N1CCN(c2ccc(Nc3nc(N)n(-c4ccnc(N5CCCN(C(=O)OC)CC5)c4)n3)cc2)CC1 [Compound 148] |  |  |
| 50 to 500 | 50 to 500 | CCOC(=O)N1CCN(c2ccc(Nc3nc(N)n(-c4ccnc(N5CCCN(C(=O)OCC)CC5)c4)n3)cc2)CC1 [Compound 149] |  |  |
| 50 to 500 | 50 to 500 | CCCOC(=O)N1CCCN(c2cc(-n3nc(Nc4ccc(N5CCN(C(=O)OCC)CC5)cc4)nc3N)ccn2)CC1 [Compound 150] |  |  |
| 50 to 500 | 50 to 500 | CCOC(=O)N1CCN(c2ccc(Nc3nc(N)n(-c4ccnc(N5CCCN(C(=O)OC(C)C)CC5)c4)n3)cc2)CC1 [Compound 151] |  |  |

| Ki (JAK3; [1]) [nM] | Ki (JAK-2 enzyme; [2]) [nM] | Compound | Ki (JAK3) [nM] | Ki (JAK-2 enzyme) [nM] |
| --- | --- | --- | --- | --- |
| 50 to 500 | 50 to 500 | CCS(=O)(=O)N1CCN(c2ccc(Nc3nc(N)n(-c4ccnc(N5CCCN(C(=O)OC)CC5)c4)n3)cc2)CC1 [Compound 152] |  |  |
| 50 to 500 | 50 to 500 | CCOC(=O)N1CCCN(c2cc(-n3nc(Nc4ccc(N5CCN(S(=O)(=O)CC)CC5)cc4)nc3N)ccn2)CC1 [Compound 153] |  |  |
| 50 to 500 | 50 to 500 | CCCOC(=O)N1CCCN(c2cc(-n3nc(Nc4ccc(N5CCN(S(=O)(=O)CC)CC5)cc4)nc3N)ccn2)CC1 [Compound 154] |  |  |
| 50 to 500 | 50 to 500 | CCS(=O)(=O)N1CCN(c2ccc(Nc3nc(N)n(-c4ccnc(N5CCCN(C(=O)OC(C)C)CC5)c4)n3)cc2)CC1 [Compound 155] |  |  |
| 50 to 500 | 50 to 500 | COC(=O)N1CCCN(c2cc(-n3nc(Nc4ccc(N5CCN(C(=O)OC(C)C)CC5)cc4)nc3N)ccn2)CC1 [Compound 156] |  |  |
| 50 to 500 | 50 to 500 | CCOC(=O)N1CCCN(c2cc(-n3nc(Nc4ccc(N5CCN(C(=O)OC(C)C)CC5)cc4)nc3N)ccn2)CC1 [Compound 157] |  |  |
| 50 to 500 | 50 to 500 | CCCOC(=O)N1CCN(c2ccc(Nc3nc(N)n(-c4ccnc(N5CCCN(C(=O)OC)CC5)c4)n3)cc2)CC1 [Compound 158] |  |  |
| 50 to 500 | 50 to 500 | CCCOC(=O)N1CCN(c2ccc(Nc3nc(N)n(-c4ccnc(N5CCCN(C(=O)OCC)CC5)c4)n3)cc2)CC1 [Compound 159] |  |  |
| 50 to 500 | 50 to 500 | CCCOC(=O)N1CCN(c2ccc(Nc3nc(N)n(-c4ccnc(N5CCCN(C(=O)OCCC)CC5)c4)n3)cc2)CC1 [Compound 160] |  |  |
| 50 to 500 | 50 to 500 | CCCOC(=O)N1CCN(c2ccc(Nc3nc(N)n(-c4ccnc(N5CCCN(C(=O)OC(C)C)CC5)c4)n3)cc2)CC1 [Compound 161] |  |  |
| 50 to 500 | 50 to 500 | CCCOC(=O)N1CCN(c2ccc(Nc3nc(N)n(-c4ccnc(N5CCCN(S(C)(=O)=O)CC5)c4)n3)cc2)CC1 [Compound 162] |  |  |
| 50 to 500 | 50 to 500 | CCCOC(=O)N1CCN(c2ccc(Nc3nc(N)n(-c4ccnc(N5CCCN(S(=O)(=O)CC)CC5)c4)n3)cc2)CC1 [Compound 163] |  |  |
| 50 to 500 | 50 to 500 | CCCOC(=O)N1CCN(c2ccc(Nc3nc(N)n(-c4ccnc(N5CCCN(S(=O)(=O)CCC)CC5)c4)n3)cc2)CC1 [Compound 164] |  |  |
| 50 to 500 | 50 to 500 | CCCOC(=O)N1CCN(c2ccc(Nc3nc(N)n(-c4ccnc(N5CCCN(S(=O)(=O)C(C)C)CC5)c4)n3)cc2)CC1 [Compound 165] |  |  |
| < 50 | < 50 | CCOC(=O)N1CCN(c2ccc(Nc3nc(N)n(-c4cc(N5CCC6CCC(C5)N6C)ncn4)n3)cc2)CC1 (stereo not shown) [Compound 166] |  |  |
| < 50 | < 50 | CCOC(=O)N1CCN(c2ccc(Nc3nc(N)n(-c4cc(NC)ncn4)n3)cc2)CC1 [Compound 167] |  |  |
| 50 to 500 | 50 to 500 | CC(C)OC(=O)N1CCN(c2ccc(Nc3nc(N)n(-c4ccnc(N5CCCN(S(C)(=O)=O)CC5)c4)n3)cc2)CC1 [Compound 168] |  |  |
| 50 to 500 | 50 to 500 | CCS(=O)(=O)N1CCCN(c2cc(-n3nc(Nc4ccc(N5CCN(C(=O)OC(C)C)CC5)cc4)nc3N)ccn2)CC1 [Compound 169] |  |  |
| 50 to 500 | 50 to 500 | COC(=O)Nc1ccc(Nc2nc(N)n(-c3ccnc(N4CCCN(C(C)=O)CC4)c3)n2)cc1 [Compound 170] |  |  |
| < 50 | 50 to 500 | CCOC(=O)Nc1ccc(Nc2nc(N)n(-c3ccnc(N4CCCN(C(C)=O)CC4)c3)n2)cc1 [Compound 171] |  |  |
| < 50 | 50 to 500 | CCCOC(=O)Nc1ccc(Nc2nc(N)n(-c3ccnc(N4CCCN(C(C)=O)CC4)c3)n2)cc1 [Compound 172] |  |  |

| Compound | Ki (JAK3; [1]) [nM] | Ki (JAK-2 enzyme; [2]) [nM] | Ki (JAK3) [nM] | Ki (JAK-2 enzyme) [nM] |
| --- | --- | --- | --- | --- |
| Cc1ccc(OC(=O)Nc2ccc(Nc3nc(N)n(-c4cc(N5CCCN(C(=O)CC#N)CC5)ncn4)n3)cc2)cc1 [Compound 138] | < 50 | < 50 |  |  |
